In the assay the target is Low-density lipoprotein receptor (Homo sapiens) (UniProt P01130). Briefly: LDLR protein level induction, dose response, orthogonal assay for Trib1 inducer project, cell-based, HepG2, ELISA, plate reader, cherry-pick (AID 1053155). The note with it: 24 h; for fold induction: measured here: max LDLR protein fold induction, stronger effect = higher value.
Sequence of Low-density lipoprotein receptor (Homo sapiens) (P01130 whole entry, looked up): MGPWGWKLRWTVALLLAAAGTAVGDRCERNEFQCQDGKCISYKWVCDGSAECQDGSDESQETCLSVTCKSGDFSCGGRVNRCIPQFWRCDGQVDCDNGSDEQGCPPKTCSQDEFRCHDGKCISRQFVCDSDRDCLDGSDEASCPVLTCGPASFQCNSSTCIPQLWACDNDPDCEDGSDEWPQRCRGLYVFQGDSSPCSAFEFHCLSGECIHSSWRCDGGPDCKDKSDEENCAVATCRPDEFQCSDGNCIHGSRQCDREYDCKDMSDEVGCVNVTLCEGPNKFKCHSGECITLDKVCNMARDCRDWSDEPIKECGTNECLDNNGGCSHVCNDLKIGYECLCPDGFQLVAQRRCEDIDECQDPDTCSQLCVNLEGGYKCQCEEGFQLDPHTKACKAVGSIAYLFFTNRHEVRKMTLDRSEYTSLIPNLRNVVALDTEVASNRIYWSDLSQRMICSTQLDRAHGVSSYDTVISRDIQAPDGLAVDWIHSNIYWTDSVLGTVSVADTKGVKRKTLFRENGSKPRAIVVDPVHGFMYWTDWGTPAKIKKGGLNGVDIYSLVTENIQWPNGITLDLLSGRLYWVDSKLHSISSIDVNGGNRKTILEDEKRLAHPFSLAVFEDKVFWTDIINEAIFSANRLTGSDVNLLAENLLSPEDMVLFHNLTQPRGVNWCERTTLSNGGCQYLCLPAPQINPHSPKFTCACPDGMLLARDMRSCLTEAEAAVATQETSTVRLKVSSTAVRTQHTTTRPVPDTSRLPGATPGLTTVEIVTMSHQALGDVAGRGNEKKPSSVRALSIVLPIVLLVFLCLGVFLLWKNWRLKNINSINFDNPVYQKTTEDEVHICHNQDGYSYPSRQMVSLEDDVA

As usually defined, the AC50 is the midpoint of the concentration-response curve, whichever way the signal moves. As a reminder, the fold induction is the signal under treatment as a multiple of the control signal. With `CN1C(=O)c2cc(NC(=O)c3ccc(C(F)(F)F)cc3)ccc2OC[C@@H]2O[C@H](CC(=O)NC3Cc4ccccc4C3)CC[C@@H]21`, the AC50 was 0.55 µM and the fold induction is 4.6.

Take `CN1C(=O)c2cc(NC(=O)c3ccc(C(F)(F)F)cc3)ccc2OC[C@@H]2O[C@@H](CC(=O)NC3Cc4ccccc4C3)CC[C@@H]21`: the AC50 was 18 µM and the fold induction amounted to 3.3.

These data come from PubChem BioAssay AID1053155 (Broad Institute, 2014).
